Source: PubChem BioAssay (NCI)
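Growth conditions: 96-well plates. Treatment: test compound, 48 hours, 5 concentrations. Analysis: linear interpolation between bracketing concentrations; unreached endpoints set to highest concentration. At the GI50, growth is halved. TGI is the concentration that stops growth completely.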

Tests used:
Assay in all cases: NCI tumour cell line growth inhibition, 48 h
DU-145 prostate = tested on: DU-145 prostate
NCI/ADR-RES ovarian = tested on: NCI/ADR-RES ovarian
PC-3 prostate = tested on: PC-3 prostate
MCF7 breast = tested on: MCF7 breast
DMS 114 small cell lung = tested on: DMS 114 small cell lung
LXFL 529 NSCLC = tested on: LXFL 529 NSCLC
M19-MEL melanoma = tested on: M19-MEL melanoma
SNB-78 CNS = tested on: SNB-78 CNS
XF 498 CNS = tested on: XF 498 CNS

Row | Compound | GI50 (DU-145 prostate) [µM] | TGI (DU-145 prostate) [µM] | GI50 (NCI/ADR-RES ovarian) [µM] | TGI (NCI/ADR-RES ovarian) [µM] | GI50 (PC-3 prostate) [µM] | TGI (PC-3 prostate) [µM] | GI50 (MCF7 breast) [µM] | TGI (MCF7 breast) [µM] | TGI (DMS 114 small cell lung) [µM] | TGI (LXFL 529 NSCLC) [µM] | TGI (M19-MEL melanoma) [µM] | TGI (SNB-78 CNS) [µM] | TGI (XF 498 CNS) [µM]
1 | CCN(CC)c1ccc2c(c1)Oc1nc(N)c(C#N)c(N)c1C2Sc1ccc(OC)cc1 (stereo unspecified) | 1.82 | 3.25 | 2.81 | 8.86 | 1.71 | 3.38 |  |  |  |  |  |  | 
2 | Cc1nc([C@H]2CC[C@H]3[C@@H]4CCC5=CC(=O)CC[C@]5(C)[C@H]4CC[C@]23C)cs1 | > 100 | > 100 | 3.63 | > 100 | 3.9 | > 100 | 2.78 | > 100 |  |  |  |  | 
3 | O=C(O)c1cc2ccccc2c(N=Nc2cc(C(F)(F)F)ccc2Cl)c1O |  | > 100 |  | > 100 |  | > 100 |  | > 100 |  |  |  |  | 
4 | O=C(CC1(O)C(=O)Nc2ccccc21)c1ccco1 (stereo unspecified) |  |  |  |  |  |  |  |  | > 100 | > 100 | > 100 | > 100 | > 100
5 | O=C(O)c1cc2ccccc2oc1=O |  | > 100 |  | > 100 |  | > 100 |  | > 100 |  |  |  |  | 
6 | COc1ccc(NC(=O)CC/C(CC(=O)C(C)(C)C)=N\NC(=O)C(N)=O)cc1 |  |  |  |  |  |  |  |  | > 100 | > 100 | > 100 |  | 
7 | C#CCN(N=O)C(=O)NC(CCCNC(=O)OCc1ccccc1)C(=O)OCc1ccccc1 (stereo unspecified) |  |  |  |  |  |  |  |  | > 100 | > 100 | > 100 | > 100 | 60.1
8 | Clc1ccc(C2=Nn3c(nnc3-c3cc(Cl)cc(Cl)c3Cl)SC2)cc1 | 34.2 | > 100 | 16.6 | > 100 | 73.4 | > 100 | 11.8 | 92.7 |  |  |  |  | 
9 | CCCCCCCCCc1cc[n+](CC(=O)c2ccc([N+](=O)[O-])cc2)cc1 | 0.729 | 2.04 | 2.17 | 4.92 | 0.552 | 1.88 | 0.397 | 1.79 |  |  |  |  | 
10 | CS(=O)(=O)CCNCc1ccc(-c2ccc3ncnc(Nc4ccc(OCc5cccc(F)c5)c(C(F)(F)F)c4)c3c2)o1 | 3.91 | 8.07 | 5.54 | 20.7 | 4.86 | 10.8 | 3.84 | 7.74 |  |  |  |  | 
11 | CS(=O)(=O)Nc1cccc(-c2cc(-c3ccccc3Cl)c(C#N)c(N)n2)c1 | 1.17 | 13 | 0.552 | > 22.2 | 0.531 | 14.1 | 0.478 | 14.3 |  |  |  |  | 
12 | O=c1c(O)cccc2cc(O)c(O)c(O)c12 | 18.8 | > 100 | 34.5 | > 100 | 54.1 | > 100 | 6.46 | 23.9 |  |  |  |  | 
13 | Cc1cc(O)c(C2=NN(c3ccc(S(N)(=O)=O)cc3)C(c3ccc(N(C)C)cc3)C2)c(C)c1Cl (stereo unspecified) | 19.2 | 38.4 | 19.3 | 76.4 | 9.21 | 23.9 | 6.55 | 24.2 |  |  |  |  | 
14 | CCn1cc(-c2ccnc3[nH]ccc23)c(-c2cccc(NC(=O)Nc3ccc(OCc4ccccc4)cc3)c2)n1 | > 25 | > 25 | > 25 | > 25 | 10.6 | > 25 | 8.15 | > 25 |  |  |  |  | 
